Legend:
C. freundii = experiment: MIC of imipenem, ertapenem and meropenem; format: cell-based, Citrobacter freundii
K. pneumoniae = experiment: MIC of imipenem, ertapenem and meropenem; format: cell-based, Klebsiella pneumoniae

Work on `C[C@@H](O)[C@H]1C(=O)N2C(C(=O)O)=C(S[C@@H]3CN[C@H](C(=O)N(C)C)C3)[C@H](C)[C@H]12` [MEM, meropenem] yielded an MIC (C. freundii; C. freundii 1003, CTX-M-15 + TEM-1, non-carbapenemase producer) of 0.023 µg/mL, an MIC (C. freundii; C. freundii 7767 (wild type)) of 0.016 µg/mL and an MIC (C. freundii; C. freundii 7767, (wild type), non-carbapenemase producer) of 0.016 µg/mL. It also gave an MIC (C. freundii; C. freundii 10107 (TEM-1 + SHV-12)) of 0.023 µg/mL, an MIC (C. freundii; C. freundii 10107, TEM-1 + SHV-12, non-carbapenemase producer) of 0.023 µg/mL and an MIC (C. freundii; C. freundii 10135 (CTX-M-15)) of 0.023 µg/mL. The MIC (C. freundii; C. freundii 10135, CTX-M-15, non-carbapenemase producer) was 0.023 µg/mL, the MIC (C. freundii; C. freundii MAU (Overexpressed AmpC + TEM-3)) was 1 µg/mL and the MIC (C. freundii; C. freundii MAU, Overexpressed AmpC + TEM-3, non-carbapenemase producer) was 1 µg/mL. For the same compound, the MIC (C. freundii; C. freundii STE (NDM-1 + OXA-1 + OXA-9 + OXA-10 + CTX-M-15 + TEM-1)) was greater than 32 µg/mL, the MIC (C. freundii; C. freundii STE, NDM-1 + TEM-1 + CTX-M-15 + VIM-4 + OXA-1 + OXA-9 + OXA-10 + OXA-181) was greater than 32 µg/mL and the MIC (C. freundii; strain C. freundii 10107, TEM-1 + SHV-12, non-carbapenemase producer) was 0.023 µg/mL. For the same compound, the MIC (C. freundii; strain C. freundii 10135, CTX-M-15, non-carbapenemase producer) was 0.023 µg/mL, the MIC (C. freundii; strain C. freundii MAU, Overexpressed AmpC + TEM-3, non-carbapenemase producer) was 1 µg/mL and the MIC (K. pneumoniae; K. pneumoniae 1 OMA (NDM-1 + CTX-M-15 + OXA-1 + OXA-9)) was greater than 32 µg/mL. The MIC (K. pneumoniae; K. pneumoniae 2 OLA (NDM-1 + OXA-1)) was 2 µg/mL, the MIC (K. pneumoniae; K. pneumoniae 7 AFR (NDM-1 + OXA-1 + CTX-M-15 + CMY-6 + TEM-1)) was greater than 32 µg/mL and the MIC (K. pneumoniae; K. pneumoniae 7AFR, NDM-1 + TEM-1 + CTX-M-15 + CMY-6 + OXA-1) was greater than 32 µg/mL. For the same compound, the MIC (K. pneumoniae; K. pneumoniae 0227, SHV-1, non-carbapenemase producer) was 0.016 µg/mL, the MIC (K. pneumoniae; K. pneumoniae 588, KPC-2 + TEM-1 + SHV-11 + OXA-9) was 16 µg/mL and the MIC (K. pneumoniae; K. pneumoniae 1022, SHV-2a + SHV-28, non-carbapenemase producer) was 0.023 µg/mL. It also gave an MIC (K. pneumoniae; K. pneumoniae 1025 (CTX-M-14 + TEM-1 + SHV-11)) of 0.016 µg/mL, an MIC (K. pneumoniae; K. pneumoniae 1025, CTX-M-14 + TEM-1 + SHV-11, non-carbapenemase producer) of 0.016 µg/mL and an MIC (K. pneumoniae; K. pneumoniae 2303, KPC-2 + SHV-11) greater than 32 µg/mL. For the same compound, the MIC (K. pneumoniae; K. pneumoniae 6642 GEN (NDM-1 + CTX-M-15 + OXA-1 + OXA-10)) was 3 µg/mL, the MIC (K. pneumoniae; K. pneumoniae 6642 GEN, NDM-1 + CTX-M-15 + OXA-1 + OXA-10) was 3 µg/mL and the MIC (K. pneumoniae; K. pneumoniae 6759 GEN (NDM-1 + CTX-M-15 + OXA-1 + OXA-9 + OXA-10 + CMY16)) was greater than 32 µg/mL. It also gave an MIC (K. pneumoniae; K. pneumoniae 6759 GEN, NDM-1 + CTX-M-15 + CMY-16 + OXA-1 + OXA-9 + OXA-10) greater than 32 µg/mL, an MIC (K. pneumoniae; K. pneumoniae 7725 (SHV-1)) of 0.032 µg/mL and an MIC (K. pneumoniae; K. pneumoniae 7725, SHV-1, non-carbapenemase producer) of 0.032 µg/mL. The MIC (K. pneumoniae; K. pneumoniae 10112, CTX-M-15 + TEM-1 + SHV-11, non-carbapenemase producer) was 0.023 µg/mL, the MIC (K. pneumoniae; K. pneumoniae 0404020, VIM-1+ SHV-5) was greater than 32 µg/mL and the MIC (K. pneumoniae; K. pneumoniae 0404024, VIM-1) was greater than 32 µg/mL. For the same compound, the MIC (K. pneumoniae; K. pneumoniae 0511135, VIM-1+ SHV-12) was greater than 32 µg/mL, the MIC (K. pneumoniae; K. pneumoniae 648236 (SHV-2a)) was 0.38 µg/mL and the MIC (K. pneumoniae; K. pneumoniae 648236, SHV-2a, non-carbapenemase producer, porin deficiency) was 0.38 µg/mL. It also gave an MIC (K. pneumoniae; K. pneumoniae 0709121, IMP-1) of 1 µg/mL, an MIC (K. pneumoniae; K. pneumoniae 0709124, IMP-1 + TEM-15) of 2 µg/mL and an MIC (K. pneumoniae; K. pneumoniae 0709125, IMP-1 + TEM-1 + SHV-12) of 2 µg/mL. It also gave an MIC (K. pneumoniae; K. pneumoniae 0709127, IMP-1 + TEM-1) of 1 µg/mL, an MIC (K. pneumoniae; K. pneumoniae A28006, KPC-2 + TEM-1 + CTX-M-2 + SHV-11) of 32 µg/mL and an MIC (K. pneumoniae; K. pneumoniae A33504, KPC-2 + TEM-1 + SHV-11 + CTX-M-2 + OXA-9) greater than 32 µg/mL. For the same compound, the MIC (K. pneumoniae; K. pneumoniae AEL, OXA-48 + CTX-M-15 + SHV-28 + OXA-1) was 0.38 µg/mL, the MIC (K. pneumoniae; K. pneumoniae ALE (CTX-M-15 + SHV-1)) was 4 µg/mL and the MIC (K. pneumoniae; K. pneumoniae ALE, CTX-M-15 + SHV-1, non-carbapenemase producer, porin deficiency) was 4 µg/mL. The MIC (K. pneumoniae; K. pneumoniae AMS (OXA-48 + TEM-1 + CTX-M-15 + OXA-1)) was 0.38 µg/mL, the MIC (K. pneumoniae; K. pneumoniae AMS, OXA-48 + TEM-1 + CTX-M-15 + OXA-1) was 0.38 µg/mL and the MIC (K. pneumoniae; K. pneumoniae BAJ (OXA-48 + TEM-1 + CTX-M-15 + SHV-28)) was 0.38 µg/mL. It also gave an MIC (K. pneumoniae; K. pneumoniae BAJ, OXA-48 + TEM-1 + CTX-M-15 + SHV-28) of 0.38 µg/mL, an MIC (K. pneumoniae; K. pneumoniae BED (CTX-M-15 + TEM-1 + SHV-1; Table 8: SHV-11)) of 4 µg/mL and an MIC (K. pneumoniae; K. pneumoniae BED, CTX-M-15 + TEM-1 + SHV-11, non-carbapenemase producer, porin deficiency) of 4 µg/mL. It also gave an MIC (K. pneumoniae; K. pneumoniae BEL (OXA-48)) of 1 µg/mL, an MIC (K. pneumoniae; K. pneumoniae BEL, OXA-48) of 1 µg/mL and an MIC (K. pneumoniae; K. pneumoniae BEN (OXA-48 + TEM-1 + CTX-M-15 + SHV-28)) of 0.25 µg/mL. The MIC (K. pneumoniae; K. pneumoniae BEN, OXA-48 + TEM-1 + CTX-M-15 + SHV-28) was 0.25 µg/mL, the MIC (K. pneumoniae; K. pneumoniae BER (TEM-1 + SHV-28)) was 1 µg/mL and the MIC (K. pneumoniae; K. pneumoniae BER, SHV-28 + TEM-1, non-carbapenemase producer, porin deficiency) was 1 µg/mL. It also gave an MIC (K. pneumoniae; K. pneumoniae BEY (OXA-48 + CTX-M-15 + TEM-1)) of 0.38 µg/mL, an MIC (K. pneumoniae; K. pneumoniae BEY, OXA-48 + TEM-1 + CTX-M-15) of 0.38 µg/mL and an MIC (K. pneumoniae; K. pneumoniae BIC (OXA-48)) of 0.5 µg/mL. The MIC (K. pneumoniae; K. pneumoniae BIC, OXA-48) was 0.5 µg/mL, the MIC (K. pneumoniae; K. pneumoniae BOU, OXA-48) was 0.25 µg/mL and the MIC (K. pneumoniae; K. pneumoniae CHA (OXA-48 + TEM-1)) was 0.5 µg/mL. For the same compound, the MIC (K. pneumoniae; K. pneumoniae CHA, OXA-48 + TEM-1) was 0.5 µg/mL, the MIC (K. pneumoniae; K. pneumoniae COL (KPC-2 + TEM-1 + SHV-1 + CTX-M-15)) was 32 µg/mL and the MIC (K. pneumoniae; K. pneumoniae COO (CTX-M-15 + SHV28)) was 4 µg/mL. For the same compound, the MIC (K. pneumoniae; K. pneumoniae COO, CTX-M-15 + SHV-28, non-carbapenemase producer, porin deficiency) was 4 µg/mL, the MIC (K. pneumoniae; K. pneumoniae DAL (OXA-48 + CTX-M-15 + TEM-1)) was 0.38 µg/mL and the MIC (K. pneumoniae; K. pneumoniae DAL, OXA-48 + TEM-1 + CTX-M-15) was 0.38 µg/mL. The MIC (K. pneumoniae; K. pneumoniae DIA, OXA-48 + TEM-1b + CTX-M-15 + SHV-11 + OXA-1) was greater than 32 µg/mL, the MIC (K. pneumoniae; K. pneumoniae DUW, OXA-48 + TEM-1 + CTX-M-15 + SHV-28) was 32 µg/mL and the MIC (K. pneumoniae; K. pneumoniae EGY (OXA-48 + CTX-M-15)) was 2 µg/mL. It also gave an MIC (K. pneumoniae; K. pneumoniae EGY, OXA-48 + CTX-M-15) of 2 µg/mL, an MIC (K. pneumoniae; K. pneumoniae ELK (OXA-48 + TEM-1 + CTX-M-15 + SHV-11)) of 0.38 µg/mL and an MIC (K. pneumoniae; K. pneumoniae ELK, OXA-48 + TEM-1 + CTX-M-15 + SHV-11) of 0.38 µg/mL. The MIC (K. pneumoniae; K. pneumoniae ENN, VIM-1+ SHV-5) was 0.38 µg/mL, the MIC (K. pneumoniae; K. pneumoniae FOS (CTX-M-15 + TEM-1 + SHV-11)) was greater than 32 µg/mL and the MIC (K. pneumoniae; K. pneumoniae FOS, CTX-M-15 + TEM-1 + SHV-11, non-carbapenemase producer, porin deficiency) was greater than 32 µg/mL. The MIC (K. pneumoniae; K. pneumoniae GES, KPC-2 + TEM-1 + SHV-11) was 1.5 µg/mL, the MIC (K. pneumoniae; K. pneumoniae HOL (OXA-181 + CTX-M-15)) was 1 µg/mL and the MIC (K. pneumoniae; K. pneumoniae HOL, OXA-181 + CTX-M-15) was 1 µg/mL.

Source: patent US9328374B2, “Selective culture medium and method for detecting carbapenem-resistant bacteria in a test sample” (Institut National de la Sante et de la Recherche Medicale …, priority 2011, dated 2016)
